Source: patent US9150505B2, “Prophylactic or therapeutic agent for diabetes or obesity” (AJINOMOTO CO., INC., priority 2010, dated 2015)

Key:
NCI-H716 cells [1] = assay: Promotion of GLP-1 secretion in NCI-H716 cells; format: cell-based, human; conditions: 10 mM, 30 minutes at 37° C., buffer assumed to be 1.0
Experimental: Human appendix-derived cell line NCI-H716 (ATCC No CCL-251) was cultured in a 10% FBS-containing DMEM/HamF-12 medium at 37° C. in the presence of 5% CO2. NCI-H716 cells were seeded in a poly-D-lysine-coated 96-well plate at 100,000 cells/well and cultured for two days. Prior to sample addition, wells were washed with Hepes buffer (20 mM Hepes, 146 mM NaCl, 5 mM KCl, 1.5 mM CaCl2, 1 mM MgSO4, 5.5 mM D-glucose, 0.2% BSA, pH 7.4). Fifty μl of a sample solution dissolved in the same buffer was added and incubated at 37° C. for 30 minutes. The above-described compounds in Example 6 (Compound 1) (10 mM), Example 48 (Compound 2) (5 mM) and Example 14 (Compound 3) (2 mM) were used as the samples. In addition, a Hepes buffer was used as a control. After collecting the supernatant, the cells were precipitated by centrifugation (5,000×g, 1 min.) to collect the supernatant thereof. GLP-1 level in the supernatant was determined as described below according to a quantitative method for GLP-1 that uses GLP-1 receptor gene expression cells.
According to a routine method (Lopez de Maturana R, Willshaw A, Kuntzsch A, Rudolph R, Donnelly D. J Biol Chem. 2003 Mar. 21; 278 (12):10195-200), human GLP-1 receptor gene (Nucleotide sequence 1) was integrated into pcDNA3.1 to prepare human GLP-1 receptor gene expression plasmid hGLP-1R/pcDNA3.1. Moreover, chimeric gene (Nucleotide sequence 2) of human Gα15 gene and human gustducin gene was integrated into pcDNA3.1 to prepare G protein expression plasmid Gα15-gust/pcDNA3.1. […] After 24 hours of cultivation in a CO2 incubator, changes in the fluorescence intensity were determined starting immediately after sample addition according to the Ca^2+ fluorescence indicator FLIPR Calcium 4 Assay Kit protocol (Molecular Devices) using FlexStation (Molecular Devices). Concentration dependency of human GLP-1 (7-36 Amide; Peptide Institute) with respect to the changes in the fluorescence intensity was determined and used as a standard curve for quantitating the sample. […]

NCI-H716 cells [2] = assay: Promotion of CCK secretion in NCI-H716 cells; format: cell-based, human
Experimental: Human appendix-derived cell line NCI-H716 (ATCC No CCL-251) was cultured in a 10% FBS-containing DMEM/HamF-12 medium at 37° C. in the presence of 5% CO2. NCI-H716 cells were seeded in a poly-D-lysine-coated 24-well plate at 600,000 cells/well and cultured for two days. Prior to sample addition, wells were washed with Hepes buffer (20 mM Hepes, 146 mM NaCl, 5 mM KCl, 1.5 mM CaCl2, 1 mM MgSO4, 5.5 mM D-glucose, 0.02% BSA, pH 7.4). 300 μl of a sample solution dissolved in the same buffer was added and incubated at 37° C. for 30 minutes. Compound 1 in Example 6 (2 mM) and Compound 2 in Example 48 (1 mM) were used as the samples. In addition, a Hepes buffer was used as a control. After collecting the supernatant, the cells were precipitated by centrifugation (5,000×g, 1 min.) to collect the supernatant thereof, which was lyophilized in Speed Vac Concentrator (SAVANT) and dissolved by addition of 60 μl of water. CCK level in the solution was determined using Enzyme immuno assay kit (EK-069-04; PHENOIX PHARMACEUTICALS).

N[C@@H](CNC(=O)Nc1cc(Cl)cc(S(=O)(=O)O)c1O)C(=O)O [Example 6, (2S)-2-amino-3-{[(5-chloro-2-hydroxy-3-sulfophenyl)carbamoyl]amino}propanoic acid]
Relative secretion volumes (GLP-1) (NCI-H716 cells [1]): 2.16 | Relative secretion volumes (CCK) (NCI-H716 cells [2]; 2 mM, 30 minutes at 37° C., buffer assumed to be 1.0): 4.89 | effect of promoting CCK secretion (NCI-H716 cells [2]; result in words): confirmed to have an effect of promoting CCK secretion
